In general, EC50 refers to the midpoint of the concentration-response curve. The term CC50 denotes the concentration at which the toxic effect on the cells reaches its halfway point. In general, EC90 refers to the concentration at which the effect reaches the 90% level.

For data set [1], the system named is HIV. Conditions: isomeric adenine nucleosides with 2′-α-fluoro atom; cited from earlier work.
The subject of data set [2] is HIV-1. The note with it: read-out: Anti-HIV-1 activity EC50; PBM cells; taken from literature; cited from earlier work.
Data set [3] has as its system human PBM cells. Conditions: cited from earlier work.
In data set [4] the test system is HIV-1. In words: Anti-HIV-1 activity in human PBM cells. The class given is cell-based. Conditions: primary human PBM cells; for EC50: read-out: Anti-HIV-1 activity EC50; for EC90: read-out: Anti-HIV-1 activity EC90.
Data set [5] deals with human PBM cells.
The subject of data set [6] is Vero cells.
Data set [7] deals with HCV. In words: Anti-HCV activity in replicon assay Huh7 cells. The class given is cell-based, hepatitis C virus. Conditions: for EC50: read-out: Anti-HCV activity EC50; for EC90: read-out: Anti-HCV activity EC90.
In data set [8] the test system is Huh-7 Replicon cells. In words: Toxicity in Huh-7 Replicon cells. Conditions: read-out: CC50 (toxicity in Huh-7 Replicon cells); replicon assay Huh7 cells. In general terms: A replicon is a self-replicating genome or part of one, used to study replication in cells.
In data set [9] the test system is CEM cells.

The structures appear in SMILES notation. Where two headings read alike, the source gives them in different places.

As to `Nc1ncnc2c1ncn2[C@@H]1O[C@H](CO)[C@@H](F)[C@H]1F` [2′,3′-dideoxy-2′,3′-difluoro–adenosine], the antiviral activity entry in data set [1] was “without antiviral activity”.

In the case of `Nc1ncnc2c1ncn2[C@@H]1O[C@H](CO)C[C@H]1F` [2′-α-FddA, 9-(2′,3′-dideoxy-2′-fluoro-β-D-erythro-pentofuranosyl)adenine], in [1], the antiviral activity result was “without antiviral activity”.

In the case of `Nc1ncnc2c1ncn2[C@@H]1O[C@H](CO)C[C@@H]1F` [2′-β-FddA, lodenosine], the half-maximal effective concentration (EC50) in [2] is 4.4 µM. Also, the CC50 in data set [3] is more than 100 µM.

For `Cc1cn([C@H]2C[C@H](N=[N+]=[N-])[C@@H](CO)O2)c(=O)[nH]c1=O` [AZT, reference compound], in data set [4], the EC50 worked out at 0.0026 µM and the 90% effect concentration (EC90) is 0.01 µM. The same molecule displayed a 50% cytotoxic concentration (CC50) in [5] of more than 100 µM. The molecule also showed a CC50 in [6] of 56 µM.

Regarding `C[C@@]1(O)[C@H](O)[C@@H](CO)O[C@H]1n1ccc(N)nc1=O` [Compound 2-C-Me-C, reference compound], in [7], the half-maximal effective concentration (EC50) turned out to be 1.3 µM and the EC90 is 5.4 µM. For the same molecule, the CC50 in data set [8] was more than 10 µM.

`Nc1ncnc2c1ncn2[C@@H]1O[C@H](CO)[C@@H](F)[C@@H]1F` [Compound 20, 9-(2′,3′-Dideoxy-2′,3′-difluoro-β-D-arabinofuranosyl)adenine]: the EC50 in [7] was more than 10 µM; in [4], 0.72 µM. The 90% effect concentration (EC90) in data set [7] is more than 10 µM; in [4], 10.3 µM. For the same molecule, the cytotoxic concentration (CC50) in [9] was more than 100 µM; in data set [5], more than 100 µM; in [6], more than 100 µM; in data set [8] it was more than 10 µM.

In the case of `Nc1nc(Cl)nc2c1ncn2[C@@H]1O[C@H](CO)[C@@H](F)[C@@H]1F` [Compound 22, 2-chloro-9-(2′,3′-dideoxy-2,3-difluoro-β-D-arabinofuranosyl)adenine], the EC50 was more than 10 µM in [7] and 14.1 µM in data set [4]. Besides, the values for the 90% effect concentration (EC90) in [7] and in [4] were more than 10 µM and 46.3 µM, respectively. For the same molecule, the 50% cytotoxic concentration (CC50) in data set [9] is 70.2 µM; in data set [5], 13.6 µM; in [6] it was more than 100 µM; in data set [8] it was more than 10 µM.
